Like-named read-outs stand apart in the source and are kept apart here.
Tests used:
[1] = test system: S. aureus (ATCC 29,213); test: Antibacterial assay, broth microdilution MIC; format: cell-based; details: for MIC: Staphylococcus aureus
Protocol: (§1) Antimicrobial testing was performed by the broth microdilution method in 96-well plates following the Clinical and Laboratory Standards Institute guidelines and European Committee on Antimicrobial Susceptibility Testing recommendations (Clinical and Laboratory Standards Institute). Bacterial suspensions equivalent to 0.5 McFarland turbidity standard were diluted with cation-adjusted Mueller–Hinton broth with TES buffering (ThermoFisher Scientific), for a final inoculum of 10^5 CFU/ mL. Compounds dissolved in DMSO and the inoculum were mixed and incubated for 20 h at 35 °C. […] The MICs were determined against two reference bacterial strains, S. aureus (ATCC 29,213) and E. coli (ATCC 25,922). Tetracycline was used as the positive control on every assay plate, with MICs of 0.5 and 1 µg/mL for S. aureus and E. coli, respectively. All MICs were determined in three independent experiments.

[2] = test system: E. coli (ATCC 25,922); test: Antibacterial assay, broth microdilution MIC; format: cell-based; details: for MIC: Escherichia coli
Protocol: as §1

[3] = molecular target: E. coli MurE (Escherichia coli, UniProt P22188); test: MurE inhibition assay (Malachite green); format: biochemical; details: 0.25 h, read-out: RA (%) @ 100 µM MurE
Sequence of E. coli MurE (P22188 whole entry): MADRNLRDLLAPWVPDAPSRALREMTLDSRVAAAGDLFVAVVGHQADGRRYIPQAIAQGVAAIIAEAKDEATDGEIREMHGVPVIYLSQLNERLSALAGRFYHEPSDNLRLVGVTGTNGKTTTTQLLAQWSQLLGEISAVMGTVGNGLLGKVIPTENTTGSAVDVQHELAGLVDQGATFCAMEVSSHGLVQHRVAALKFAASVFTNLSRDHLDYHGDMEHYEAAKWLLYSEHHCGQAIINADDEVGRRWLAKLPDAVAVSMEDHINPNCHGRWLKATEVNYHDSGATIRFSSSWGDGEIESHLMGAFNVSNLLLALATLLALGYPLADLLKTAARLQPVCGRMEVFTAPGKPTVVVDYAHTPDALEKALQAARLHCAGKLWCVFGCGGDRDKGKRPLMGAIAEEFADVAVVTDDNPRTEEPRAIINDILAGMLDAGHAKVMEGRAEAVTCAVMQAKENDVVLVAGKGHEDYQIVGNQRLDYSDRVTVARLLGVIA
Protocol: (§2) Inhibition of the Mur ligases was determined using the Malachite green assay, with slight modifications. […] In all cases, the final concentration of DMSO was 5% (v/v).
(§3) After incubation for 15 min at 37 °C, the enzyme reaction was terminated by the addition of 100 µM Biomol green reagent®, and the absorbance was measured at 650 nm after 5 min. Experiments to determine the RA run in triplicate. Residual activities were calculated with respect to control assays without the tested compounds, but with the 5% DMSO carrier. The IC50 values were determined by measuring the residual activities at seven different compound concentrations, and they represent the concentration of the compound at which the residual activity was 50%. IC50 values were obtained by plotting the residual enzyme activities against the applied inhibitor concentrations, fitting the experimental data to the 4-parameter Hill equation: Y=Bottom-Top-Bottom/1+10^logIC50-X×HillSlope , where X is the logarithm of the inhibitor concentration, and Y is the residual activity. The IC50 values were determined in three independent experiments. GraphPad Prism 8.2.0 (GraphPad Software, San Diego, CA, USA) was used for the fitting procedure.
(§4) The assay detects the phosphate formed in each enzyme reaction. To avoid any possibility of the compounds inhibiting the enzymes due to aggregation, a detergent (0.005% Triton-X114) was added to the test system.

[4] = molecular target: E. coli MurF (Escherichia coli, UniProt P11880); test: MurF inhibition assay (Malachite green); format: biochemical; details: for remaining activity at 100 µM: 0.25 h, residual activity at 100 µM compound, mean ± SD of three independent experiments, read-out: RA (%) @ 100 µM MurF; for IC50: seven compound concentrations, 4-parameter Hill fit, three independent experiments
Sequence of E. coli MurF (P11880 whole entry): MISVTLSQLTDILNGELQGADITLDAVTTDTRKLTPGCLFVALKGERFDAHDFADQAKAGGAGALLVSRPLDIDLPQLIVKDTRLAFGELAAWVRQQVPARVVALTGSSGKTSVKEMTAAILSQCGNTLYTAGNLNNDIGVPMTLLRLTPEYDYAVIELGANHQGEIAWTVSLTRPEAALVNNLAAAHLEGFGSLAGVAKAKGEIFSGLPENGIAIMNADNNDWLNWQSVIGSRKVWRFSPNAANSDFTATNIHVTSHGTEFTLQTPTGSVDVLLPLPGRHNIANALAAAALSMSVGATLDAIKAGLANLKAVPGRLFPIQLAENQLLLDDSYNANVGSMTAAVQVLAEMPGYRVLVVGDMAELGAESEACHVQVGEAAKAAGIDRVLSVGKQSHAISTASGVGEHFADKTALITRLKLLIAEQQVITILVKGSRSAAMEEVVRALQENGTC
Protocol: as §2, §3, §4

[5] = molecular target: E. coli MurC (Escherichia coli, UniProt P17952); test: MurC inhibition assay (Malachite green); format: biochemical; details: 0.25 h, read-out: RA (%) @ 100 µM MurC
Sequence of E. coli MurC (P17952 whole entry): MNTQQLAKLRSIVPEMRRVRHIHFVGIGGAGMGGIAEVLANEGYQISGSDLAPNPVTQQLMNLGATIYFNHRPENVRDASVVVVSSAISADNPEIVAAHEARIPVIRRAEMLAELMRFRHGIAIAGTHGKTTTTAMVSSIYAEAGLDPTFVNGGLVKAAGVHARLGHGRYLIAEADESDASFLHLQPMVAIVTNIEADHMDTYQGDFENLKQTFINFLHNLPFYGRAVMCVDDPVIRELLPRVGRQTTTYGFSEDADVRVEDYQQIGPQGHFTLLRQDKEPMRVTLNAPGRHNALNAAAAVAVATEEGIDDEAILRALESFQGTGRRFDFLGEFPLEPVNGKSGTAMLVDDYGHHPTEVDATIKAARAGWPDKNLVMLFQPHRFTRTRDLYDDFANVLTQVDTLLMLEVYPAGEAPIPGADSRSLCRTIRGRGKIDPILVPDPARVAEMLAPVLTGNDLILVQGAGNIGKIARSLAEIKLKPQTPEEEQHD
Protocol: as §2, §3, §4

[6] = molecular target: E. coli MurD (Escherichia coli, UniProt P14900); test: MurD inhibition assay (Malachite green); format: biochemical; details: 0.25 h, read-out: RA (%) @ 100 µM MurD
Sequence of E. coli MurD (P14900 whole entry): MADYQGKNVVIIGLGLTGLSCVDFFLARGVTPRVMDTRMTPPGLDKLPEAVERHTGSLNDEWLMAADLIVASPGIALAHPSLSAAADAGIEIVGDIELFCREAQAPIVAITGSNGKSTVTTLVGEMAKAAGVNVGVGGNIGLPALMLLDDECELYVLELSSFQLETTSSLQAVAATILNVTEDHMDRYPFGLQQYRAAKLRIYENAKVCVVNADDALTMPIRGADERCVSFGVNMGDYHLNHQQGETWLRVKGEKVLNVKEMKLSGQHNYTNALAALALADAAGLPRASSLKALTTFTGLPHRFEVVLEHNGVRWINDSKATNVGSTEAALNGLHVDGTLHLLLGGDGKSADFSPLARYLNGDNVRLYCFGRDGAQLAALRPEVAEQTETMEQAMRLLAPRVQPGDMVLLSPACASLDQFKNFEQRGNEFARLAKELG
Protocol: as §2, §3, §4

[7] = ATCC29, broth microdilution, 20 h at 35 °C, read-out: MIC S.aureus
[8] = ATCC25, broth microdilution, 20 h at 35 °C, read-out: MIC E.coli
[9] = residual activity at 100 µM compound, mean ± SD of three independent experiments
[10] = ATCC29, 20 h, read-out: MIC S.aureus
[11] = ATCC25, 20 h, read-out: MIC E.coli

Structure (SMILES)	MIC [1, 7] [µM]	MIC [2, 8] [µM]	remaining activity at 100 µM [3, 9] [%]	remaining activity at 100 µM [4] [%]	remaining activity at 100 µM [5, 9] [%]	remaining activity at 100 µM [6, 9] [%]	MIC [1, 10] [µM]	Inhibition of growth of S. aureus (in words) ([1]; broth microdilution)	MIC [2, 11] [µM]	Inhibition of growth of E. coli (in words) ([2]; broth microdilution)	IC50 [4] [µM]	remaining activity at 100 µM [3] [%]	remaining activity at 100 µM [5] [%]	remaining activity at 100 µM [6] [%]	MIC ([1]; ATCC29, positive control on every assay plate, read-out: MIC S. aureus, positive control) [mg/L]	MIC ([2]; ATCC25, positive control on every assay plate, read-out: MIC E. coli, positive control) [mg/L]	MIC ([1]; ATCC29, broth microdilution, 20 h at 35 °C, read-out: MIC S. aureus) [µM]
O=c1c(O[C@@H]2O[C@H](CO)[C@@H](O)[C@H](O)[C@H]2O)c(-c2ccc(O)c(O)c2)oc2cc(O)cc(O)c12 [Compound 8]	> 250	> 250	97 ± 8	88 ± 9	95 ± 9	100 ± 9											
COc1cc([C@@H]2[C@H]3CO[C@@]4(O)C(=O)[C@@H]2C=C([C@H]2Oc5cc(O)cc(O)c5C(=O)[C@@H]2O)[C@@H]34)ccc1O [Compound 24, silydianin]	> 250	> 250	93 ± 9	99 ± 7	100 ± 7	95 ± 9											
C[C@@H]1O[C@@H](Oc2c(-c3ccc(O)c(O)c3)oc3cc(O)cc(O)c3c2=O)[C@H](O)[C@H](O)[C@H]1O [Compound 10, quercitrin]			98 ± 9		98 ± 10	77 ± 9	> 250	inactive	> 250	inactive	143 ± 18						
CC1OC(Oc2c(-c3cc(O)c(O)c(O)c3)oc3cc(O)cc(O)c3c2=O)C(O)C(O)C1O (centres unmarked) [Compound 11]	> 250	> 250	100 ± 10	86 ± 9	97 ± 7	89 ± 7											
O=c1c(O)c(-c2ccc(O)c(O)c2)oc2cc(O)cc(O)c12 [Compound 14, Quercetin]	250	> 250						inhibit the growth				28 ± 4	41 ± 5	43 ± 6			
O=c1c(OC2OC(CO)C(O)C(O)C2O)c(-c2ccc(O)c(O)c2)oc2cc(O)cc(O)c12 (centres unmarked) [Compound 9]	> 250	> 250	100 ± 8	90 ± 8	89 ± 8	100 ± 8											
Oc1cc(O)c2c(c1)O[C@H](c1ccc(O)c(O)c1)[C@@H](O)C2 [Compound 22, (+)-catechin]	> 250	> 250	88 ± 8	100 ± 10	100 ± 10	93 ± 8											
COc1cc(O)c(CC=C(C)C)c2c1C(=O)C[C@@H](c1ccc(O)cc1)O2 [Compound 2]	250	> 250	77 ± 7	78 ± 9	86 ± 8	100 ± 10		inhibit the growth									
O=C1C[C@@H](c2ccc(O)cc2)Oc2cc(O)cc(O)c21 [Compound 5]	> 250	> 250	98 ± 9	87 ± 9	97 ± 8	100 ± 9											
CC(C)=CCc1c(O)cc(O)c2c1O[C@H](c1ccc(O)cc1)CC2=O [Compound 3]	62	> 250	87 ± 9	71 ± 7	95 ± 10	100 ± 8		inhibit the growth									
COc1ccc([C@@H]2CC(=O)c3c(O)cc(O)cc3O2)cc1O [Compound 1]	> 250	> 250	100 ± 10	87 ± 8	100 ± 9	94 ± 9											
Cc1c(O)cc(O)c2c1O[C@H](c1ccccc1)CC2=O [Compound 4]	> 250	> 250	100 ± 9	88 ± 9	91 ± 9	97 ± 8											
O=c1cc(-c2ccc(O)c(O)c2)oc2cc(OC3OC(CO)C(O)C(O)C3O)cc(O)c12 (centres unmarked) [Compound 15]	> 250	> 250	100	92 ± 9	100 ± 9	75 ± 6											
CN(C)[C@@H]1C(O)=C(C(N)=O)C(=O)[C@@]2(O)C(O)=C3C(=O)c4c(O)cccc4[C@@](C)(O)[C@H]3C[C@@H]12 [Tetracycline, reference compound]															0.5	1	
COc1cc(O)c(CC=C(C)C)c(O)c1C(=O)/C=C/c1ccc(O)cc1 [Compound 23, xanthohumol]	31	> 250	82 ± 7	72 ± 8	86 ± 8	91 ± 10		inhibit the growth									31
O=c1c(O)c(-c2ccccc2)oc2cc(O)cc(O)c12 [Compound 16]	250	> 250	100 ± 10	100 ± 10	100 ± 8	91 ± 7		inhibit the growth									
O=c1cc(-c2ccccc2)oc2cc(O)cc(O)c12 [Compound 17]	> 250	> 250	83 ± 8	100 ± 8	100 ± 10	71 ± 9											
COc1cc(OC)c2c(=O)cc(-c3ccc(OC)c(OC)c3)oc2c1 [Compound 19]			100 ± 9	100 ± 9	100 ± 9	100 ± 10	> 250		> 250								
O=c1c(O)c(-c2cc(O)c(O)c(O)c2)oc2cc(O)cc(O)c12 [Compound 12, myricetin]	> 250	> 250	66 ± 7		87 ± 8	87 ± 9		inactive		inactive	139 ± 13						
CC1OC(OCC2OC(Oc3c(-c4ccc(O)c(O)c4)oc4cc(O)cc(O)c4c3=O)C(O)C(O)C2O)C(O)C(O)C1O (centres unmarked) [Compound 7]	> 250	> 250	100 ± 10	89 ± 10	100 ± 10	97 ± 9											
COc1cc(O)c2c(=O)c(O)c(-c3ccc(O)c(O)c3)oc2c1 [Compound 13]	> 250	> 250	82 ± 8	51 ± 6	66 ± 7	71 ± 8											
